Experimental data taken from US11180504B2 (ORCHID PHARMA LTD., priority 2016, dated 2021).
Converted amounts (≈) assume the structure as drawn. Like-named read-outs stand apart in the source and are kept apart here.

Legend:
[1] = system: carbapenemase producing K. pneumoniae; assay: MIC by broth micro-dilution (CLSI), carbapenemase producing K. pneumoniae; assay type: cell-based, Klebsiella pneumoniae; settings: Klebsiella pneumoniae, ATCCBAA1705, KPC-2 K. pneumoniae ATCC BAA-1705; read-out: MIC
[2] = system: carbapenem sensitive Escherichia coli; assay: MIC by broth micro-dilution (CLSI), carbapenem sensitive E. coli; assay type: cell-based; settings: Escherichia coli, ATCC25922, ESBL −ve E. coli ATCC25922; read-out: MIC
[3] = system: carbapenem sensitive Pseudomonas aeruginosa; assay: MIC by broth micro-dilution (CLSI), carbapenem sensitive P. aeruginosa; assay type: cell-based
[4] = system: methicillin-sensitive Staphylococcus aureus; assay: MIC by broth micro-dilution (CLSI), methicillin-sensitive S. aureus; assay type: cell-based; settings: Staphylococcus aureus, MSSA S. aureus ATCC29213, read-out: MIC
[5] = Pseudomonas aeruginosa, ATCC27853, Meropenem susceptible P. aeruginosa ATCC27853, read-out: MIC

SMILES	MIC [1]	MIC [2]	MIC [3, 5]	MIC ([4]; ATCC 29213 / MSSA)	MIC ([3]; Meropenem susceptible P. aeruginosa ATCC27853)	MIC ([4]; ATCC29213|MSSA)
C[C@@H](NC(=O)Cn1cnnn1)[C@H]1C(=O)N2C(C(=O)O)=C(S[C@@H]3CN[C@H](C(=O)N4CCC(N)C(F)C4)C3)[C@H](C)[C@H]12 (single isomer, unassigned) [Example 425]	2 µg/mL (≈ 3.54 µM)	0.25 µg/mL (≈ 0.442 µM)	2 µg/mL (≈ 3.54 µM)	4 µg/mL (≈ 7.07 µM)	–	–
C[C@@H](NC(=O)Cn1cnnn1)[C@H]1C(=O)N2C(C(=O)O)=C(S[C@@H]3CN[C@H](C(=O)N4CCC(C(=O)NCC(O)CN)CC4)C3)[C@H](C)[C@H]12 (single isomer, unassigned) [Example 572]	2 µg/mL (≈ 3.08 µM)	0.25 µg/mL (≈ 0.385 µM)	–	4 µg/mL (≈ 6.17 µM)	4 µg/mL (≈ 6.17 µM)	–
C[C@@H](NC(=O)Cn1cnnn1)[C@H]1C(=O)N2C(C(=O)O)=C(S[C@@H]3CN[C@H](C(=O)N4CC5CC(CO)NC5C4)C3)[C@H](C)[C@H]12 (single isomer, unassigned) [Example 551]	2 µg/mL (≈ 3.39 µM)	0.25 µg/mL (≈ 0.424 µM)	2 µg/mL (≈ 3.39 µM)	4 µg/mL (≈ 6.78 µM)	–	–
C[C@@H](NC(=O)Cn1cnnn1)[C@H]1C(=O)N2C(C(=O)O)=C(S[C@@H]3CN[C@H](C(=O)N4CC5(CC(N)CO5)C4)C3)[C@H](C)[C@H]12 (single isomer, unassigned) [Example 530]	1 µg/mL (≈ 1.74 µM)	0.25 µg/mL (≈ 0.434 µM)	0.5 µg/mL (≈ 0.869 µM)	2 µg/mL (≈ 3.47 µM)	–	–
C[C@@H](NC(=O)Cn1cnnn1)[C@H]1C(=O)N2C(C(=O)O)=C(S[C@@H]3CN[C@H](C(=O)N4CCN(CCNC(=N)N)CC4)C3)[C@H](C)[C@H]12 [Example 432, (4R,5S,6R)-6-((R)-1-(2-(1H-tetrazol-1-yl)acetamido)ethyl)-3-((3S,5S)-5-(4-(2-guanidinoethyl)piperazine-1-carbonyl)pyrrolidin-3-ylthio)-4-methyl-7-oxo-1-azabicyclo[3.2.0]hept-2-ene-2-carboxylic acid]	1 µg/mL (≈ 1.62 µM)	0.25 µg/mL (≈ 0.404 µM)	1 µg/mL (≈ 1.62 µM)	2 µg/mL (≈ 3.23 µM)	–	–
C[C@@H](NC(=O)Cn1cnnn1)[C@H]1C(=O)N2C(C(=O)O)=C(S[C@@H]3CN[C@H](C(=N)N4CC[C@@H](N)C4)C3)[C@H](C)[C@H]12 [Example 550]	2 µg/mL (≈ 3.75 µM)	0.25 µg/mL (≈ 0.469 µM)	8 µg/mL (≈ 15 µM)	–	–	1 µg/mL (≈ 1.88 µM)
C[C@@H](NC(=O)Cn1cnnn1)[C@H]1C(=O)N2C(C(=O)O)=C(S[C@@H]3CN[C@H](C(=O)N4CCC5(CCN5)CC4)C3)[C@H](C)[C@H]12 [Example 365, (4R,5S,6R)-3-((3S,5S)-5-(1,7-diazaspiro[3.5]nonane-7-carbonyl)pyrrolidin-3-ylthio)-6-((R)-1-(2-(1H-tetrazol-1-yl)acetamido)ethyl)-4-methyl-7-oxo-1-azabicyclo[3.2.0]hept-2-ene-2-carboxylic acid]	2 µg/mL (≈ 3.49 µM)	0.25 µg/mL (≈ 0.436 µM)	2 µg/mL (≈ 3.49 µM)	4 µg/mL (≈ 6.97 µM)	–	–
C[C@@H](NC(=O)Cn1cnnn1)[C@H]1C(=O)N2C(C(=O)O)=C(S[C@@H]3CN[C@H](C(=O)N4CC[C@@H](NC(=O)CNC(=N)N)C4)C3)[C@H](C)[C@H]12 [Example 567, (4R,5S,6R)-6-((R)-1-(2-(1H-tetrazol-1-yl)acetamido)ethyl)-3-((3S,5S)-5-((R)-3-(2-guanidinoacetamido)pyrrolidine-1-carbonyl)pyrrolidin-3-ylthio)-4-methyl-7-oxo-1-azabicyclo[3.2.0]hept-2-ene-2-carboxylic acid]	0.5 µg/mL (≈ 0.79 µM)	0.125 µg/mL (≈ 0.198 µM)	1 µg/mL (≈ 1.58 µM)	1 µg/mL (≈ 1.58 µM)	–	–
C[C@@H](NC(=O)Cn1cnnn1)[C@H]1C(=O)N2C(C(=O)O)=C(S[C@@H]3CN[C@H](C(=O)N4CC[C@@H](NCCN)C4)C3)[C@H](C)[C@H]12 [Example 401, (4R,5S,6R)-6-((R)-1-(2-(1H-tetrazol-1-yl)acetamido)ethyl)-3-((3S,5S)-5-((R)-3-(2-aminoethylamino)pyrrolidine-1-carbonyl)pyrrolidin-3-ylthio)-4-methyl-7-oxo-1-azabicyclo[3.2.0]hept-2-ene-2-carboxylic acid]	2 µg/mL (≈ 3.47 µM)	0.5 µg/mL (≈ 0.867 µM)	2 µg/mL (≈ 3.47 µM)	8 µg/mL (≈ 13.9 µM)	–	–
C[C@@H](NC(=O)[C@@H]1CS(=O)(=O)CN1)[C@H]1C(=O)N2C(C(=O)O)=C(S[C@@H]3CN[C@H](CNS(N)(=O)=O)C3)[C@H](C)[C@H]12 [Example 281]	16 µg/mL (≈ 28.2 µM)	8 µg/mL (≈ 14.1 µM)	64 µg/mL (≈ 113 µM)	32 µg/mL (≈ 56.5 µM)	–	–
C[C@@H](NC(=O)Cn1cnnn1)[C@H]1C(=O)N2C(C(=O)O)=C(S[C@@H]3CN[C@H](C(=O)N4CCC(CN)(CO)CC4)C3)[C@H](C)[C@H]12 [Example 463, (4R,5S,6R)-6-((R)-1-(2-(1H-tetrazol-1-yl)acetamido)ethyl)-3-((3S,5S)-5-(4-(aminomethyl)-4-(hydroxymethyl)piperidine-1-carbonyl)pyrrolidin-3-ylthio)-4-methyl-7-oxo-1-azabicyclo[3.2.0]hept-2-ene-2-carboxylic acid]	1 µg/mL (≈ 1.69 µM)	0.5 µg/mL (≈ 0.845 µM)	2 µg/mL (≈ 3.38 µM)	4 µg/mL (≈ 6.76 µM)	–	–
C[C@@H](NC(=O)Cn1nnnc1-c1cccs1)[C@H]1C(=O)N2C(C(=O)O)=C(S[C@@H]3CN[C@H](C(=O)N(C)C)C3)[C@H](C)[C@H]12 [Example 357, (4R,5S,6R)-3-((3S,5S)-5-(dimethylcarbamoyl)pyrrolidin-3-ylthio)-4-methyl-7-oxo-6-((R)-1-(2-(5-(thiophen-2-yl)-1H-tetrazol-1-yl)acetamido)ethyl)-1-azabicyclo[3.2.0]hept-2-ene-2-carboxylic acid]	32 µg/mL (≈ 55.7 µM)	1 µg/mL (≈ 1.74 µM)	> 128 µg/mL	2 µg/mL (≈ 3.48 µM)	–	–
C[C@@H](NC(=O)Cn1cnnn1)[C@H]1C(=O)N2C(C(=O)O)=C(S[C@@H]3CN[C@H](C(=O)N4CCN(C(=O)CN)CC4)C3)[C@H](C)[C@H]12 [Example 395, (4R,5S,6R)-6-((R)-1-(2-(1H-tetrazol-1-yl)acetamido)ethyl)-3-((3S,5S)-5-(4-(2-aminoacetyl)piperazine-1-carbonyl)pyrrolidin-3-ylthio)-4-methyl-7-oxo-1-azabicyclo[3.2.0]hept-2-ene-2-carboxylic acid]	1 µg/mL (≈ 1.69 µM)	0.125 µg/mL (≈ 0.212 µM)	1 µg/mL (≈ 1.69 µM)	2 µg/mL (≈ 3.39 µM)	–	–
C[C@H]([C@H]1C(=O)N2C(C(=O)O)=C(S[C@@H]3CN[C@H](C(=O)N4CC[C@@H](N)C4)C3)[C@H](C)[C@H]12)n1cnnn1 [Example 328, (4R,5S,6S)-6-((R) - 1-(1H-tetrazol-1-yl)ethyl)-3-((3S,5S)-5-((R)-3-aminopyrrolidine-1-carbonyl)pyrrolidin-3-ylthio)-4-methyl-7-oxo-1-azabicyclo[3.2.0]hept-2-ene-2-carboxylic acid]	4 µg/mL (≈ 8.39 µM)	2 µg/mL (≈ 4.2 µM)	32 µg/mL (≈ 67.1 µM)	4 µg/mL (≈ 8.39 µM)	–	–
C[C@@H](NC(=O)Cn1cnnn1)[C@H]1C(=O)N2C(C(=O)O)=C(S[C@H]3CCN(C(=O)CN)C3)[C@H](C)[C@H]12 [Example 449, (4R,5S,6R)-6-((R)-1-(2-(1H-tetrazol-1-yl)acetamido)ethyl)-3-((S)-1-(2-aminoacetyl)pyrrolidin-3-ylthio)-4-methyl-7-oxo-1-azabicyclo[3.2.0]hept-2-ene-2-carboxylic acid]	4 µg/mL (≈ 8.36 µM)	0.5 µg/mL (≈ 1.04 µM)	64 µg/mL (≈ 134 µM)	4 µg/mL (≈ 8.36 µM)	–	–
C[C@@H](NC(=O)Cn1cnnn1)[C@H]1C(=O)N2C(C(=O)O)=C(S[C@@H]3CN[C@H](C(=O)N4C[C@H](N)C[C@H]4C(=O)N4CC[C@@H](N)C4)C3)[C@H](C)[C@H]12 [Example 447, (4R,5S,6R)-6-((R)-1-(2-(1H-tetrazol-1-yl)acetamido)ethyl)-3-((3S,5S)-5-((2S,4R)-4-amino-2-((R)-3-aminopyrrolidine-1-carbonyl)pyrrolidine-1-carbonyl)pyrrolidin-3-ylthio)-4-methyl-7-oxo-1-azabicyclo[3.2.0]hept-2-ene-2-carboxylic acid]	4 µg/mL (≈ 6.19 µM)	0.5 µg/mL (≈ 0.774 µM)	16 µg/mL (≈ 24.8 µM)	16 µg/mL (≈ 24.8 µM)	–	–
C[C@@H](NC(=O)Cn1cnnn1)[C@H]1C(=O)N2C(C(=O)O)=C(S[C@@H]3CN[C@H](C(=O)N4C[C@@H](O)[C@@H](NC(=N)N)C4)C3)[C@H](C)[C@H]12 [Example 546, (4R,5S,6R)-6-((R)-1-(2-(1H-tetrazol-1-yl)acetamido)ethyl)-3-((3S,5S)-5-((3S,4R)-3-guanidino-4-hydroxypyrrolidine-1-carbonyl)pyrrolidin-3-ylthio)-4-methyl-7-oxo-1-azabicyclo[3.2.0]hept-2-ene-2-carboxylic acid]	1 µg/mL (≈ 1.69 µM)	0.25 µg/mL (≈ 0.423 µM)	2 µg/mL (≈ 3.38 µM)	1 µg/mL (≈ 1.69 µM)	–	–
C[C@@H](NC(=O)Cn1cnnn1)[C@H]1C(=O)N2C(C(=O)O)=C(S[C@@H]3CN[C@H](C(=O)N4C[C@@H](CO)[C@H](NC(=N)N)C4)C3)[C@H](C)[C@H]12 [Example 583, (4R,5S,6R)-6-((R)-1-(2-(1H-tetrazol-1-yl)acetamido)ethyl)-3-((3S,5S)-5-((3S,4R)-3-guanidino-4-(hydroxymethyl)pyrrolidine-1-carbonyl)pyrrolidin-3-ylthio)-4-methyl-7-oxo-1-azabicyclo[3.2.0]hept-2-ene-2-carboxylic acid]	1 µg/mL (≈ 1.65 µM)	0.03 µg/mL (≈ 0.0495 µM)	0.5 µg/mL (≈ 0.826 µM)	1 µg/mL (≈ 1.65 µM)	–	–
C[C@@H]1C[C@H](N)CN1C(=O)[C@@H]1C[C@H](SC2=C(C(=O)O)N3C(=O)[C@H]([C@@H](C)NC(=O)Cn4cnnn4)[C@H]3[C@H]2C)CN1 [Example 411, (4R,5S,6R)-6-((R)-1-(2-(1H-tetrazol-1-yl)acetamido)ethyl)-3-((3S,5S)-5-((2R,4S)-4-amino-2-methylpyrrolidine-1-carbonyl)pyrrolidin-3-ylthio)-4-methyl-7-oxo-1-azabicyclo[3.2.0]hept-2-ene-2-carboxylic acid]	1 µg/mL (≈ 1.83 µM)	0.25 µg/mL (≈ 0.457 µM)	1 µg/mL (≈ 1.83 µM)	2 µg/mL (≈ 3.65 µM)	–	–
